Test results reported in patent US10907168B2, “Jasmonic acid pathway activator” (MEDICAGO INC., priority 2015, dated 2021).

Tested on: C5-1 antibody
Assay: C5-1 antibody quantification by ELISA in agroinfiltrated leaves
Assay type: in vivo, Nicotiana benthamiana
Details: ELISA; 1 mM, leaves treated 24 h before infiltration
Procedure: Forty-two day-old N. benthamiana plants grown in greenhouse were used for the experiments. Each plant was sprayed evenly with 50 ml of 0.5 mM, 1 mM or 2 mM MeJA in water containing 0.1% (v/v) Triton X-100 (Sigma-Aldrich, Mississauga ON, Canada), or with 50 ml of 1 mM arachidonic acid (Girard et al., 2007) in the same solvent, and transferred for seven days in a Conviron growth chamber (Conviron, Winnipeg MB, Canada). Plants sprayed with 50 ml of 0.1% (v/v) Triton X-100 in water were used in parallel as negative controls to avoid confounding effects due to experimental conditions. Two or three 1-cm^2 leaf discs were harvested from the third main stem leaf (see Robert et al., 2013) after seven days, as source material for protein and RNA extraction. The leaf samples were frozen immediately in liquid nitrogen and stored at −80° C. until protein or RNA extraction. Three to five biological (plant) replicates were used for each treatment, to allow for statistical treatment of the data. Two gene vectors were used for the agroinfiltration assays: an engineered pcambia2300 vector encoding the light and heavy chains of C5-1 fused to an N-terminal signal peptide sequence for cellular secretion (see Goulet et al., 2012 for details on gene construct); and the original (“empty”) pcambia2300 binary vector (CAMBIA, Canberra, Australia) as a control for agroinfection. The two binary vectors were electroporated into A. tumefaciens strain LBA4404 and the cultures were maintained in Luria-Bertani (LB) medium supplemented with 50 μg/ml kanamycin and 50 μg/ml rifampicin. For infiltration, bacteria were grown to stable phase at 28° C. to an OD600 of 1.0 and collected by centrifugation at 2,000 g. The bacterial pellets were resuspended in 10 mM 2-[N-morpholino] ethanesulfonic acid] (MES) buffer, pH 5.8, containing 100 μM acetosyringone and 10 mM MgCl2. Leaf infiltration was performed using a needle-less syringe as described earlier (D'Aoust et al., 2009), after mixing the C5-1 antibody (or empty vector) agrobacterial suspension with an equal volume of bacterial suspension carrying a binary vector for the protein silencing suppressor p19 (Voinnet et al., 2003). Infiltrated tissue for molecular characterization was collected six days post-infection (i.e. seven days post-MeJA or arachidonate treatment), unless otherwise indicated. Three to five biological (plant) replicates were used for each treatment to allow for statistical analyses. ELISA plates for C5-1 antibody quantification (Becton Dickinson, Mississauga ON, Canada) were coated with 3.75 μg/ml goat anti-mouse heavy chain-specific IgG1 (Sigma-Aldrich) in 50 mM carbonate buffer (pH 9.0) at 4° C. for 16-18 h. The plates were washed three times in 10 mM phosphate-buffered saline containing 0.1% (v/v) Tween 20 (PBS-T), blocked through a 1-h incubation at 37° C. in 1% (w/v) casein in phosphate-buffered saline (PBS) (Pierce, Rockford Ill., USA), and washed three times in PBS-T. A standard curve was generated for each plate with 0, 4, 8, 16, 24, 32, 40 and 60 ng/ml of purified mouse IgG1 (Sigma-Aldrich). All dilutions (controls and samples) were performed in a control extract obtained from leaf tissue infiltrated with a mock inoculum so that any matrix effect was eliminated. The plates were incubated with protein samples for 1 h at 37° C., washed three times in PBS-T and then incubated with peroxidase-conjugated goat anti-mouse IgG (H+L) antibodies (0.02 μg/ml in blocking solution) (Jackson ImmunoResearch) for 1 h at 37° C. After additional washes with PBS-T, the plates were incubated with the 3,3′,5,5′-tetramethylbenzidine Sure Blue peroxidase substrate (KPL, Gaithersburg Md., USA). The reaction was stopped by the addition of 1 N HCl and the absorbance was read at 450 nm. Three independent (biological) replicates were used for each assay.

Structure (SMILES): CCCCC/C=C\C/C=C\C/C=C\C/C=C\CCCC(=O)O [arachidonic acid]
- C5-1 yield change: No yield increase
